# Laboratory results taken from patent US20130345306A1, “IDENTIFICATION OF C3 COMPLEMENT MOLECULE AT THE SITE OF INJURY TO BLOOD VESSELS IN THE RETINA OF OXYGEN EXPOSED ANIMALS” (priority 2011, published 2013).
# “Also recorded” adds a separate entry of the source.
# How the values were obtained:
# airway neutrophilia = conditions: in vivo; cited from earlier work
# rodent C3aR = conditions: cited from earlier work
# human C3aR = human C3aR (Homo sapiens, UniProt Q16581); conditions: cited from earlier work
# Sequence of human C3aR (Q16581 whole entry): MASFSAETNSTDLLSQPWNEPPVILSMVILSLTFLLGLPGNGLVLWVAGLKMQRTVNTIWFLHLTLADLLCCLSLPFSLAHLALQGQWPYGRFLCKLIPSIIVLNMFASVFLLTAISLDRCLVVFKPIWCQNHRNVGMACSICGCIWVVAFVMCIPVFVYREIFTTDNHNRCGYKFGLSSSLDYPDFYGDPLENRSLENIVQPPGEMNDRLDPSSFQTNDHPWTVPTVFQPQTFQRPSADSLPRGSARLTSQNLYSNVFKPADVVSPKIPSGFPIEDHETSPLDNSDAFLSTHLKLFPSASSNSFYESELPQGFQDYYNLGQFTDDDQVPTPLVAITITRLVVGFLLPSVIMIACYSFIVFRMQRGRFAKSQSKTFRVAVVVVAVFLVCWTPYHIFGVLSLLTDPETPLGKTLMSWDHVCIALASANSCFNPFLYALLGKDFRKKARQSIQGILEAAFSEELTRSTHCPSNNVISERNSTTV
# [1] = test system: murine oxygen-induced retinopathy (OIR); assay: Murine oxygen-induced retinopathy (OIR), SB290157 injected intraperitoneally on DOL 5, retinal vasculature pattern on DOL 17; format: in vivo; conditions: 1 mg/kg i.p. DOL 5
# Method: litters of new born mice were divided into 4 groups. On Day of Life (DOL) 5, SB290157 1 mg per kilogram body weight is injected intraperitoneally into mice in Group 1 and Group 3; same volume solvent without SB290157 is injected intraperitoneally into mice in Group 2 and Group 4. Mice from group 1 and 2 are raised in room air all the time, but mice from group 3 and 4 are raised in room air till DOL 7 when they are transfer into 75% oxygen chamber and on DOL 12 they are returned into room air. On DOL 17, eyes are enucleated and retinas dissected after euthanasia. Retinas are then stained with Alexa Fluor 488 conjugated isolectin GS-IB4 and mounted on slide for vasculature pattern study.
# new born mice = assay: Murine OIR trial with progressively increased SB290157 dosage, observation for untoward reactions or side effects; format: in vivo, mouse; conditions: i.p. DOL 5; dosage increased from 2.5 to 5, 7.5, 10, 15, 25, 50 mgm/kg; 75% O2 DOL 7-12
# Method: Standard O2 exposure 75% DOL 7-12; 3) Euthanasia at DOL17, followed by enucleation, removal of the retina and separation from the retina from underlying Pigment Epithelial layer. Flatmount and stain for vessels with IsoLectin was performed by incubating the preparation with goat AB followed by counter-staining with Rhodamine to bring out the presence of active C3a; 4)Microscopy at 2.5× and 40× for: capillary bed anatomy; presence of “ghost vessels” previously described; presence of cellular debris noted previously thought to be pieces of partially destroyed but not digested cell wall; destruction or absence of neurons and glial in the retina surrounding the Optic Nerve Head(from which major blood vessels exit undamaged at least as can be detected by the oxygen exposure); presence or absence of neovascular tufts (a late complication of oxygen damage). An additional trial with Intravitreal Injection will be performed as this paper is prepared.
# MATERIALS & METHOD: Litters of black 6 new born mice were divided in half at birth. At DOL seven, one half of the litter were placed in an oxygen chamber maintained at 75%+/−2% oxygen till DOL 12. The oxygen exposed mice were maintained in room air until DOL 17. The control mice were raised in room air until DOL 17 when both halves were euthanized at DOL17. Eyes were enucleated and fixed in 4% paraformaldehyde at 4° C. overnight. […]
# [2] = test system: murine oxygen-induced retinopathy (OIR); assay: Murine OIR, SB290157 intraperitoneal just prior to 75% oxygen, preservation of capillary bed; format: in vivo, mouse; conditions: 2-5 mg/kg i.p. just prior to 75% oxygen DOL 7-12; vs sham saline injected oxygen-exposed litter mates
# Method: Murine Model of Oxygen-Induced Retinopathy (OIR): In this regard we reported the role of active C3a in the OIR (15). C57BL/6J mice were obtained from Jackson Laboratories. After birth the litter of mice were nursed by their dam in a room air environment from day of life (DOL) 0 to DOL 6. On DOL 7 the litter were separated in half. One half were placed with their nursing dam in a custom made incubator from DOL 7 through DOL 12 ([…]) with the oxygen concentration maintained at 75% measured twice daily. The other half of the litter were raised in room air as controls. Dams were replaced every 24 hours in the incubator. […]
# After a rinse, the retinas were permeabilized with 0.1% Triton X100 and stained with Alexa Fluor 488-conjugated isolectin GS-IB4, followed by blocking with 5% donkey serum. […] Images were obtained digitally with a fluorescence microscope and a digital camera. […]
# For a given control half litter the areal extent of total destruction can be estimated, in a non-limiting example from the area extending from optic nerve to mid periphery of the retina. For the SB290157 treated animals the measured area of destruction can be estimated, in a non-limiting example from the area extending from optic nerve to mid periphery of the retina. […] The results of this experiment are measured in prevention of capillary loss. […]
# [3] = 75% oxygen DOL 7-12, DOL 17, vs solvent-injected oxygen-exposed group 4
smiles,measurement,setting,value
NC(N)=NCCC[C@H](NC(=O)COCC(c1ccccc1)c1ccccc1)C(=O)O [SB290157],effect in airway neutrophilia,airway neutrophilia,beneficial effects
same,C3a receptor blockade,rodent C3aR,blocking
same,C3a receptor blockade,human C3aR,blocking
same,effect on murine OIR (conclusion),[1]; 75% oxygen DOL 7-12,can attenuate murine OIR
same,capillary damage in retinal whole mounts,[1]; [3],attenuated the damage to the capillary bed; also recorded: significantly less capillary damage
same,neovascularization tufts,[1]; [3],few to no vascular tufts; also recorded: less neovascularization tufts
same,retinal vasculature / toxicity to forming vascular tissue in room air raised mice,"[1]; room air, DOL 17, vs solvent group 2",No evidence of toxicity to forming vascular tissue; also recorded: normal developing vasculature patterns without significant difference
same,untoward reactions or side effects,new born mice,None were observed
same,preservation of capillary bed,[2],prevents the destruction of capillary bed; also recorded: preservation of capillary bed
